Assay results published in patent US20130053323A1, “METHODS AND USE RELATED TO HUMANIN AND HUMANIN-LIKE PEPTIDES” (priority 2009, published 2013).

Tests used:
[1] = test system: NMRI nude mice; assay: Bone growth (X-ray) in tumor-xenografted NMRI nude mice; type: in vivo; details: HNG 1 μg/mice i.p. + bortezomib 1 mg/kg i.p. days 1, 4, 8, 11, day 13
Protocol: Male NMRI nu/nu mice (B&K Scanbur, Sweden or Taconic, Denmark) were xenografted at the age of 4 weeks (BW 18-25 g). The mice were anesthetized with 2% fluothane (Zeneca Ltd, Macclesfield, UK) supplemented with 50% N2O in oxygen. Tumor cells (NB (SH-SY5Y; 20×10^6 cells/side) or MB (D-283; 10×10^6 cells/side) in 0.1 ml medium) were implanted s.c. in the hindlegs of the animal using a 23 G needle. Tumors were measured every other day with a digital caliper, starting when they were palpable. At a tumor volume of 0.1 ml or 0.15 ml the animals were randomized into groups (1. Vehicle without tumors; 2. Vehicle with tumors; 3. HNG (S14G; 1 μg/mice); 4. CT (bortezomib; 0.8 mg/kg or 1 mg/kg); 5. HNG (S14G) 1 μg/mice+CT (bortezomib; 0.8 mg/kg or 1 mg/kg), stratified by their bodyweight and treatment started. Treatment regime was the same as in clinical settings with 2 injections/week; 2 weeks treatment (see FIG. 1, Group 1). HNG (S14G) was injected 40 min before the CT (bortezomib) injection. Tumor volume was calculated by the formula 0.44×length×width×width (Wassberg, Pahlman et al. 1997). […] The animal weight and general appearance were recorded every day throughout the experiments. […] After fixation, femur and tibia were measured with digital calipers and decalcified in 5% EDTA and then paraffin embedded. […]

[2] = test system: type-X collagen; assay: Immunohistochemistry for type-X collagen in tibia growth plate; type: in vivo, mice
Protocol: Four weeks old mice (female, FVB) were injected with Dexa dissolved in saline (20 μg/mice) subcutaneously in the neck every day for four week. Whereas, HNG (S14G) dissolved in saline (1 μg/mice) was injected intra-peritoneally, 45 minutes prior to the Dexa injection. The vehicle group received saline only. The femur and tibia bones were dissected out and fixed in 4% formalin for 24 hrs, followed by decalcification in 10% EDTA and embedded in paraffin blocks. Five-micrometer-thick sections were prepared from these paraffin blocks. After one wash in dH2O, endogenous peroxidase activity was reduced by incubation in 3% hydrogen peroxide in methanol for 5 min at room temperature. The sections were additionally treated with 5 mg/ml hyaluronidase (Sigma-Aldrich, Inc, Steinheim, Germany) for 30 min at 37° C., then blocked in 3% horse serum and incubated overnight at +4° C. with anti-collagen type-X primary antibody (Quartett GmbH, Berlin, Germany; 1:30). Secondary anti-mouse biotinylated antibody (1:300) was purchased from DakoCytomation A/S (Glostrup, Denmark). Sections were washed in TBS, incubated with avidin-conjugated peroxidase (Vector Laboratories) for 60 min, and the resulting peroxidase activity was detected using a DAB Kit (Vector Laboratories). […] Minimum 4 measurements were taken from each sample and measured blindly. n=4-5/group, **p<0.01. […]

“S14G-HN (MAPRGFSCLLLLTGEIDLPVKRRA) [HNG (S14G)]” was tested, and the “rescue of bortezomib-induced impairment of linear bone growth” value ([1]; medulloblastoma xenograft) was “able to rescue and prevent the undesired side effects of CT (bortezomib) on linear bone growth”, the “rescue of bortezomib-induced impairment of linear bone growth” value ([1]; neuroblastoma xenograft) was “able to rescue and prevent the undesired side effects of CT (bortezomib) on linear bone growth” and the “type-X collagen expression (height)” value ([2]; Dexa 20 μg/mice + HNG 1 μg/mice every day for four weeks, vs Dexa alone, p<0.01) was “significantly increased”. For the same substance, the “type-X collagen expression (height)” value ([2]; HNG only, 1 μg/mice every day for four weeks) was “also increased”.
